Assay results from patent US7528224B1, “Peptide for triggering an immune reaction against tumor cells” (Immatics Biotechnologies GmbH, priority 1999, dated 2009).
Ends that are not written are not given here.

Experiments:
cytotoxic T cells = assay: Induction of cytotoxic T cells in vitro with peptide-pulsed dendritic cells; type: cell-based, human; conditions: dendritic cells incubated with 50 μg/ml synthetic peptide, autologous mononuclear cells
Description: As e.g. described by Brossart, P., et al., Cancer Res 58 (1998), pages 732 ff.; first of all, mononuclear cells of peripheral blood were isolated from buffy coat preparations of heparinized blood of three healthy donators by Ficoll/Paque (Gibco-BRL, Grand Island, N.Y.) density-gradient centrifugation. The cells were seeded in cell culture bowls in RP10 medium.
5×10^5 dendritic cells from 1.1 were incubated with 50 μg/ml synthetic peptide from 1.2 for two hours, washed, and incubated with 2.5×10^6 autologous, i.e. coming from the same donators, mononuclear cells of periphery blood in RP10 medium. Additionally to the control peptides and the potentially HLA-A2 binding peptides the dendritic cells were partly incubated with 50 μg/ml of a PAN-HLA-DR-binding peptide which represents a T helper epitope.
After seven days of cultivation, the cells were again stimulated by adding autologous, mononuclear cells of peripheral blood pre-incubated with the synthetic peptide from 1.2. On the first, third and fifth day, respectively, 1 ng/ml human recombinant IL-2 (Genzyme) was added. The cytokine IL-2 is necessary for the cultivation and reproduction of cytotoxic T cells. Altogether, stimulation was effected up to three times in an interval of a week.

T2 cells = assay: 51Cr release cytotoxic T cell activity on peptide-pre-incubated T2 cells; type: cell-based, human; conditions: 4 h; for killing of T2 cells pre-treated with the same peptide by the cytotoxic T cells induced with the peptide: T2 cells pre-incubated with 50 μg/ml of exactly this peptide; for killing of T2 cells pre-treated with other peptides by the cytotoxic T cells induced with the peptide: T2 cells pre-incubated with other peptides
Description: T2 cells which are distinguished by the fact that they can generate HLA-A2, but cannot present peptides synthesized by themselves via this MHC class I molecules, were pre-incubated with 50 μg/ml of synthetic peptide from 1.2 for two hours and marked with [^51Cr]-sodium chromate in RP10 at 37° C. for one hour. In each case 10^4 of these cells were transferred into each of a well of a 96-well-plate. Cytotoxic T cells that were generated before according to 1.3 were added, so that, respectively, an end volume of 200 μl per well was reached. Subsequently, incubation took place for four hours at 37° C. If now the cytotoxic T cells kill the cells that were labeled with ^51Cr before, they lyse these cells, and the ^51Cr contained in the cells is released. At the end of the experiment in the cell supernatants taken off, the released radioactivity is determined by counting in a β-counter. In that way, a measure for the cytotoxic activity of T cells is obtained.

Sequence | induction of cytotoxic T cells in vitro by means of dendritic cells (cytotoxic T cells) | killing of T2 cells pre-treated with the same peptide by the cytotoxic T cells induced with the peptide (T2 cells) | killing of T2 cells pre-treated with other peptides by the cytotoxic T cells induced with the peptide (T2 cells)
LLLLTVLTV [SEQ ID NO: 2] | able to induce cytotoxic T cells | could kill only those cells which were pre-treated with the peptide with the sequence SEQ ID NO: 2 | behave in the same way
STAPPVHNV [SEQ ID NO: 1] | able to induce cytotoxic T cells | able to specifically kill | not able to kill
